{
  "source": "patent US20240207254A1",
  "about": "“METHODS FOR TITRATING MITAPIVAT” (Agios Pharmaceuticals, Inc., priority 2021, published 2024)",
  "assay": "phase 2 study: sudden withdrawal or missed doses of mitapivat, acute hemolysis",
  "type": "in vivo, human",
  "protocol": "Clinical studies have also shown that acute hemolysis with subsequent anemia can occur following abrupt interruption or discontinuation of mitapivat. […] For example, in a phase 2 study with 300 mg of mitapivat dosed twice daily, 3.8% of subjects experienced hemolysis upon sudden withdrawal of mitapivat, including 1 serious adverse event of acute hemolysis. […] Although the exact risk factors which make someone susceptible to acute hemolysis cannot be determined, it appears that the rapid loss of hemoglobin is an issue for these cases. Given the uncertainty as to who is likely to experience signs or symptoms of acute hemolysis (or subsequent anemia), it is important to develop means for mitigating such events.",
  "data": [
    {"smiles": "O=C(c1ccc(NS(=O)(=O)c2cccc3cccnc23)cc1)N1CCN(CC2CC2)CC1", "note": "[mitapivat, N-(4-(4-(cyclopropylmethyl)piperazine-1-carbonyl)phenyl)quinoline-8-sulfonamide]", "values": [
      {"measurement": "events indicative of acute hemolysis after missed doses", "setting": "patients who missed only a few doses later in their treatment course", "result": "did not experience events indicative of acute hemolysis"},
      {"measurement": "subjects who experienced hemolysis upon sudden withdrawal of mitapivat", "setting": "phase 2 study, 300 mg mitapivat dosed twice daily, sudden withdrawal", "result": 3.8, "unit": "%"},
      {"measurement": "serious adverse event of acute hemolysis (number of events)", "setting": "phase 2 study, 300 mg twice daily, sudden withdrawal, included in the 3.8%", "result": 1}
    ]}
  ]
}
